The subject of series [1] is ICR male mice. As to the kind of experiment: Acute toxicity in mice (i.v.). Type of series: in vivo. The note with it: five mice per dose. The method, then:
The acute toxicity of Mer-A2026A was determined in ICR male mice. Five mice were used at each dose.

In series [2] the test system is blood pressure. As to the kind of experiment: Depressor effect in anesthetized spontaneously hypertensive rats (i.v.). Also on record: Vasodepression / Duration time: unit not given here. Type of series: in vivo, Male spontaneously hypertensive rats (SHR rats). The note with it: for Duration time / Vasodepression: injected into femoral vein. The method, then: Male spontaneously hypertensive rats (SHR rats), 25-31 weeks old, were anesthetized with 40 mg/kg of pentobarbital sodium injected intraperitoneally. For the measurement of blood pressure, a cannula was inserted into the left carotid artery and connected to a multipurpose polygraph through a pressure transducer. Each animal was allowed to equilibrate for at least 30 minutes before injection and test substances were injected into the femoral vein through a polyethylene tube.

The subject of series [3] is norepinephrine- or KCl-contracted rat thoracic aorta. Kind of series: Vasodilating activity: relaxation of contracted thoracic aorta helical strips. The conditions noted are these: for pIC50: cumulative application, pH 7.4, 37° C.; for relaxation of the aorta compared with papaverine: vs papaverine, norepinephrine or KCl contraction. Set-up: species or system Male Sprague-Dawley rats. The method, then:
Male Sprague-Dawley rats weighing 250-300 g were sacrificed by cervical dislocation and exsanguinated. The thoracic aorta was dissected out and helical strips, 2 mm wide and 10 mm long, were prepared. Each preparation was mounted in a 10 ml organ bath containing physiological saline solution (Krebs-Henzeleit solution, pH 7.4). The solution was gassed with 95% O2 - 5% CO2 at 37° C. and a resting tension of 0.5 g was applied. Tissues were allowed to equilibrate for at least 60 minutes before the application of test substances. The developed tension was measured isometrically with a force-displacement transducer and recorded on pen-recorder. Tissues had been contracted with 10^-7 M norepinephrine or isotonic 60 mM KCl and test substances were applied cumulatively.

Series [4] is described as follows: Solubility.
Setting [5] is: 10^-7 M norepinephrine contraction, read-out: IC50 Norepinephrine (concentration needed to induce a 50% decrease in norepinephrine-induced contraction).
[6] abbreviates: isotonic 60 mM KCl contraction, read-out: IC50 Isotonic KCl (concentration needed to induce a 50% decrease in KCl-induced contraction).

Experimental findings from patent publication US5223519A, “4-hydroxypyridine derivatives, useful for treating circulatory diseases” (Mercian Corporation, priority 1990, dated 1993) are described below.

pIC50: −log10 of the molar value. Read-outs that look alike come from different tables or passages of the source.

Turning to `COc1cc(O)c(C)c(C/C=C(\C)C/C=C/C(C)=C/C(C)C(O)/C(C)=C/C(C)C)n1` (centres unmarked) [Mer-A2026A], the “acute toxicity (survival)” value in series [1] (250 μg/Kg intravenous) is given as “all survived”. Also, the “acute toxicity (deaths)” value in series [1] (500 μg/Kg intravenous) was “sacrificed the one mouse”. Further, the figures for the Duration time in series [2] (10 μg/kg), in series [2] (30 μg/kg) and in series [2] (100 μg/kg) were 0.2, 9.4 and 24.5, respectively. In addition, the Vasodepression in series [2] (10 μg/kg) is recorded as 3.6; in series [2] (30 μg/kg) it was 25.0; in series [2] (100 μg/kg), 47.7. The “depressor effect (in words)” value in series [2] (SHR rats, i.v., refers to Table 3) was “markedly prolonged the duration time and decreased the blood pressure”. Also, the pIC50 in series [3] (setting [5]) is 6.70; in series [3] (setting [6]) it was 6.00. In addition, in series [3], the “relaxation of the aorta compared with papaverine” value is given as “more greatly relaxed the aorta than papaverine”. In addition, the “solubility in commonly available organic solvents” value in series [4] was “soluble”. The solubility in water result in series [4] is “insoluble”.

As for `C/C=C(\C)C(O)C(C)/C=C(C)/C=C/C/C(C)=C/Cc1nc(OC)cc(O)c1C` (centres unmarked) [Mer-A2026B], the pIC50 in series [3] (setting [5]) was 6.11. Further, the pIC50 in series [3] (setting [6]) was 6.40. Besides, in series [3], the “relaxation of the aorta compared with papaverine” value is “more greatly relaxed the aorta than papaverine”. Besides, in series [4], the “solubility in commonly available organic solvents” value was “soluble” and the solubility in water entry was “insoluble”.

In series [2] (1000 μg/kg), `COc1ccc(Cc2nccc3cc(OC)c(OC)cc23)cc1OC` [Papaverine, reference compound] returned a Duration time of 2.2 and a Vasodepression of 52.0. In addition, the pIC50 in series [3] (setting [5]) is 5.33. Also, the pIC50 in series [3] (setting [6]) is 4.77.
